Laboratory results: PubChem BioAssay AID330 (DTP/NCI, 2004)
Where “and” joins values, the source holds several entries; their conditions need not be identical. Equal entries are not always repeated. Toxic doses and inconclusive results are not listed. The calls were made as follows: active = survival T/C of 150% or more; inactive = T/C below 125% in these data.

Test system: P388 leukemia ip, CD2F1 mice, survival T/C
Assay: NCI In Vivo Anticancer Drug Screen. Data for tumor model P388 Leukemia (intraperitoneal) in CD2F1 (CDF1) mice
Conditions: endpoint: median survival time, higher = longer survival
Outline: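 Mice carrying the transplanted tumor received test compound or vehicle. Survival was recorded in each group, and the value is the treated-group measurement divided by that of the vehicle-treated control group.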

[1] = dose: 50.0 mg/kg/injection, schedule: Q01DX009 (ip), vehicle: saline
[2] = dose: 100.0 mg/kg/injection, schedule: Q01DX009 (ip), vehicle: saline
[3] = dose: 200.0 mg/kg/injection, schedule: Q01DX009 (ip), vehicle: saline
[4] = dose: 50.0 mg/kg/injection, schedule: Q01DX005 (ip), vehicle: saline with Tween-80
[5] = dose: 50.0 mg/kg/injection, schedule: Q01DX005 (ip), vehicle: Klucel (hydroxypropylcellulose) (HPC)
[6] = dose: 100.0 mg/kg/injection, schedule: Q01DX005 (ip), vehicle: Klucel (hydroxypropylcellulose) (HPC)
[7] = dose: 200.0 mg/kg/injection, schedule: Q01DX005 (ip), vehicle: Klucel (hydroxypropylcellulose) (HPC)
[8] = dose: 100.0 mg/kg/injection, schedule: Q04DX003 (ip), vehicle: saline with Tween-80
[9] = dose: 200.0 mg/kg/injection, schedule: Q04DX003 (ip), vehicle: saline with Tween-80
[10] = dose: 100.0 mg/kg/injection, schedule: Q01DX005 (ip), vehicle: saline with Tween-80
[11] = dose: 200.0 mg/kg/injection, schedule: Q01DX005 (ip), vehicle: saline with Tween-80
[12] = dose: 60.0 mg/kg/injection, schedule: Q01DX005 (ip), vehicle: saline with Tween-80
[13] = dose: 120.0 mg/kg/injection, schedule: Q01DX005 (ip), vehicle: saline with Tween-80
[14] = dose: 50.0 mg/kg/injection, schedule: Q01DX009 (ip), vehicle: saline with Tween-80
[15] = dose: 100.0 mg/kg/injection, schedule: Q01DX009 (ip), vehicle: saline with Tween-80
[16] = dose: 200.0 mg/kg/injection, schedule: Q01DX009 (ip), vehicle: saline with Tween-80
[17] = dose: 50.0 mg/kg/injection, schedule: Q04DX003 (ip), vehicle: saline with Tween-80
[18] = dose: 12.5 mg/kg/injection, schedule: Q01DX009 (ip), vehicle: saline
[19] = dose: 25.0 mg/kg/injection, schedule: Q01DX009 (ip), vehicle: saline
[20] = dose: 100.0 mg/kg/injection, schedule: Q01DX009 (ip), vehicle: Klucel (hydroxypropylcellulose) (HPC)

Measured: T/C

CCC1(C)CC(=O)NC(=O)C1
inactive: dose: 2.5 mg/kg/injection, schedule: Q01DX009 (ip), vehicle: saline with Tween-80 95 % of control | dose: 5.0 mg/kg/injection, schedule: Q01DX009 (ip), vehicle: saline with Tween-80 95 % of control | dose: 10.0 mg/kg/injection, schedule: Q01DX009 (ip), vehicle: saline with Tween-80 86 % of control

O=S(=O)(O)C1CC2NC3C4CCCC(S(=O)(=O)O)C4C(Nc4ccccc4)CC3N(c3ccccc3)C2CC1Nc1ccccc1 (stereo not given)
inactive: [1] 112 % of control | [2] 116 % of control | [3] 116 % of control

CCN(CC)CCCN(C)Cc1c(-c2ccccc2)oc(-c2ccccc2)c1Cl
inactive: dose: 6.25 mg/kg/injection, schedule: Q01DX005 (ip), vehicle: saline with Tween-80 106 % of control | dose: 12.5 mg/kg/injection, schedule: Q01DX005 (ip), vehicle: saline with Tween-80 106 % of control | dose: 25.0 mg/kg/injection, schedule: Q01DX005 (ip), vehicle: saline with Tween-80 107 % of control | [4] 104 % of control

COc1cc(C2OCC3C(c4cc(OC)c(OC)c(OC)c4)OCC23)cc(OC)c1OC (stereo not given)
inactive: [5] 102 % of control | [6] 100 % of control | [7] 102 % of control

CC1(C)CC(=O)C=C(OCCc2ccccc2)C1
inactive: [8] 100 % of control | [9] 100 % of control | dose: 400.0 mg/kg/injection, schedule: Q04DX003 (ip), vehicle: saline with Tween-80 95 % of control

CC1=CC(=Nc2ccc(N(CCCl)CCCl)cc2)C(C)=C(C)C1=O
inactive: dose: 100.0 mg/kg/injection, schedule: Q01DX001 (ip), vehicle: Klucel (hydroxypropylcellulose) (HPC) 116 % of control and 123 % of control

COc1nc(Nc2ccccc2SC)nc(OC)n1
inactive: [4] 104 % of control | [10] 106 % of control | [11] 107 % of control

CNC(=S)N=Nc1c(O)[nH]c2ccccc12
inactive: [1] 91 % of control | [2] 99 % of control | [3] 91 % of control

CC1=CC(C)=NC2NNC(=O)C12 (stereo not given)
inactive: [12] 110 % of control | [13] 109 % of control | dose: 240.0 mg/kg/injection, schedule: Q01DX005 (ip), vehicle: saline with Tween-80 105 % of control

N/C(=N\OC1(c2ccccc2)OC(=O)C(=O)/C1=C(/O)c1ccccc1)c1ccccc1 (stereo not given)
inactive: [12] 102 % of control | [13] 100 % of control

COc1ccccc1-n1cccc(C#N)c1=S
inactive: dose: 60.0 mg/kg/injection, schedule: Q01DX005 (ip), vehicle: Klucel (hydroxypropylcellulose) (HPC) 98 % of control | dose: 120.0 mg/kg/injection, schedule: Q01DX005 (ip), vehicle: Klucel (hydroxypropylcellulose) (HPC) 91 % of control | dose: 240.0 mg/kg/injection, schedule: Q01DX005 (ip), vehicle: Klucel (hydroxypropylcellulose) (HPC) 89 % of control

CS/C(=C(\C#N)C(N)=O)N1CC1
inactive: dose: 25.0 mg/kg/injection, schedule: Q04DX002 (ip), vehicle: DMSO 94 % of control | dose: 50.0 mg/kg/injection, schedule: Q04DX002 (ip), vehicle: DMSO 100 % of control | dose: 100.0 mg/kg/injection, schedule: Q04DX002 (ip), vehicle: DMSO 102 % of control and 95 % of control | dose: 200.0 mg/kg/injection, schedule: Q04DX002 (ip), vehicle: DMSO 100 % of control

CCOC(=O)CC(=O)c1sc(SC)c(C#N)c1N
inactive: [4] 106 % of control | [10] 100 % of control | [11] 93 % of control

O=c1[nH]nc(-c2ccc(Cl)cc2)c2c1[nH]c1ccccc12
inactive: [12] 98 % of control | [13] 97 % of control

Sc1nc2ccccc2s1.Sc1nc2ccccc2s1.Sc1nc2ccccc2s1.Sc1nc2ccccc2s1.[Cl][Rh][Cl]
inactive: [14] 93 % of control | [15] 101 % of control | [16] 101 % of control

O=C(C=C(C(F)(F)F)C(F)(F)F)c1cccc(S(=O)(=O)F)c1
inactive: dose: 3.13 mg/kg/injection, schedule: Q04DX003 (ip), vehicle: saline 100 % of control | dose: 6.25 mg/kg/injection, schedule: Q04DX003 (ip), vehicle: saline 100 % of control | dose: 12.5 mg/kg/injection, schedule: Q04DX003 (ip), vehicle: saline 95 % of control

CC(=O)Oc1ccccc1
inactive: [17] 103 % of control | [8] 100 % of control

C=C1C(=O)O[C@@H]2/C=C(\C)CC/C=C(/C)CC[C@@H]12
inactive: dose: 12.5 mg/kg/injection, schedule: Q04DX003 (ip), vehicle: Klucel (hydroxypropylcellulose) (HPC) 100 % of control | dose: 25.0 mg/kg/injection, schedule: Q04DX003 (ip), vehicle: Klucel (hydroxypropylcellulose) (HPC) 107 % of control | dose: 50.0 mg/kg/injection, schedule: Q04DX003 (ip), vehicle: Klucel (hydroxypropylcellulose) (HPC) 100 % of control | dose: 100.0 mg/kg/injection, schedule: Q04DX003 (ip), vehicle: Klucel (hydroxypropylcellulose) (HPC) 113 % of control

N#CC(C#N)C1C=C/C(=N\O)C1 (stereo not given)
inactive: [18] 99 % of control | [19] 101 % of control | [14] 109 % of control | [1] 102 % of control

CCOC(=O)Cc1ccccn1
inactive: [20] 109 % of control | dose: 200.0 mg/kg/injection, schedule: Q01DX009 (ip), vehicle: Klucel (hydroxypropylcellulose) (HPC) 110 % of control | dose: 400.0 mg/kg/injection, schedule: Q01DX009 (ip), vehicle: Klucel (hydroxypropylcellulose) (HPC) 119 % of control

O=C1/C(=C/C=C/c2ccccc2)C(=S)SN1Cc1ccco1
inactive: dose: 50.0 mg/kg/injection, schedule: Q01DX009 (ip), vehicle: Klucel (hydroxypropylcellulose) (HPC) 96 % of control | [20] 97 % of control

Cn1cccc([N+](=O)[O-])c1=O
inactive: dose: 5.0 mg/kg/injection, schedule: Q01DX009 (ip), vehicle: saline 105 % of control and 109 % of control | dose: 10.0 mg/kg/injection, schedule: Q01DX009 (ip), vehicle: saline 101 % of control and 108 % of control | [18] 113 % of control and 114 % of control | dose: 20.0 mg/kg/injection, schedule: Q01DX009 (ip), vehicle: saline 102 % of control and 110 % of control | [19] 100 % of control and 107 % of control | dose: 40.0 mg/kg/injection, schedule: Q01DX009 (ip), vehicle: Klucel (hydroxypropylcellulose) (HPC) 100 % of control | dose: 40.0 mg/kg/injection, schedule: Q01DX009 (ip), vehicle: saline 105 % of control | dose: 60.0 mg/kg/injection, schedule: Q01DX009 (ip), vehicle: Klucel (hydroxypropylcellulose) (HPC) 104 % of control

C=C(C)[C@@H](/C=C/[C@@H](C)[C@H]1CC[C@H]2C3=CC[C@H]4C[C@@H](O)CC[C@]4(C)[C@H]3CC[C@]12C)CC
inactive: [14] 90 % of control | [17] 95 % of control | [15] 90 % of control | [8] 90 % of control | [16] 100 % of control | [9] 95 % of control

CNC(=O)c1ccccc1CNC(=S)Nc1cccc(C)c1
inactive: [5] 98 % of control | [6] 98 % of control | [7] 95 % of control

N=C(N)Sc1cc(O)ccc1O
inactive: dose: 75.0 mg/kg/injection, schedule: Q01DX009 (ip), vehicle: saline with Tween-80 118 % of control | dose: 150.0 mg/kg/injection, schedule: Q01DX009 (ip), vehicle: saline with Tween-80 113 % of control
